# Experimental data from patent US20180235213A1, “PLANT HORMONE APPLICATION” (The State of Israel Ministry of Agriculture & Rural …, priority 2015, published 2018).
# Key:
# Picual olives = test: Application of strigolactone analogs by irrigation to olive seedlings; type: in vivo, Olea europaea L.; details: for number of growing buds / lateral branches: irrigation to roots twice a week for 6 weeks, 0.03 and 0.3 μM, vs control
# Method: The effect of application of various analogues of strigolactone (SL) on olives, given to roots by irrigation was examined. Three different SL analogs; […] The seedlings were rooted from cuttings and hardened, and were about 6 months old at the time of the experiment. Growth soil mixture was used as in the nursery. Each strigolactone analog was dissolved in acetone to give a 5.6 mM solution. This solution was then further diluted with distilled water to 0.03 and 0.3 μM. The diluted solution was injected to the roots twice a week for 6 weeks, and subsequently all the growing buds were counted. For each treatment (treated and control groups) 10 plants were measured. Experiments were repeated three times.
# [1] = test system: Orobanche aegyptiaca seeds; test: Orobanche Germination Assay (biological activity after stress treatments); type: in vivo
# Method: The implementation of the strigolactone analogs necessitates a degree of material stability, to ensure their activity on the plant under various growth conditions. Accordingly, the stability of the strigolactone analog GR24 was tested under different environmental conditions. GR24 in acetone stock solution of 5.6 mM was diluted in double distilled water (DDW) or HPC pre-made gel to a concentration of 0.56 μM in eppendorf tubes and was subjected to the following treatments:
# GR24 solutions of 0.56 μM, diluted either in DDW or in HPC pre-made gel in eppendorf tubes were incubated in a dry block heater at temperatures of 4° C., 20° C., 40° C., 60° C. digitally set for periods of 3 h, 1 d, 2 d, 4 d, 5 d and 7 d under ambient light.
# GR24 solutions of 0.56 μM, diluted either in DDW or in HPC pre-made gel, each in quartz tubes (15 replicates for each treatment) were exposed to UV radiation of λ=312 nm under UV lamp of 600 or 857 μE intensity for periods of 15 min, 30 min or 18 h.
# Biological activity was determined by Orobanche Germination Assay: Approximately 30 to 50 seeds of Orobanche aegyptiaca were spread on a glass fiber filter paper disk (9-mm diameter) and put into sterile petri dishes (9-cm diameter) lined with Whatman filter paper wetted with 3 mL of demineralized water. Petri dishes were sealed with parafilm and incubated at 27° C. for preconditioning. After one week of preconditioning period, the glass fiber filter paper disks with Orobanche seeds were removed from the petri dish and dried for 20 min to remove surplus moisture. The disks were transferred to another petri dish within a filter paper ring (outer diameter of 9 cm; inner diameter of 8 cm) wetted with 0.9 mL of water, which maintained a moist environment during the germination bioassay. Forty microliters of the GR24 test solutions were added to the disks. Untreated GR24 at a 0.56 μM concentration was used as a positive control, water or HPC pre-made gel as negative controls. Germination percent was calculated using the counter cell analysis of the IMAGEJ (http://www.//rsbweb.nih.gov/ij/) software. Germinated seeds were distinguished from non-germinated seeds according to the seedling radicles, which are a few millimeters long and visible under a stereomicroscope (Leica MZFLIII, Leica Microsystems, GmbH).
# For each of the GR24 treatments fifteen replicates with 30-40 seeds were tested per treatment with 40 μl of 0.56 μM GR24 test solutions pre-treated as described above. The experiment was repeated three times (n=450 seeds).
# Next, GR24 was stabilized with Hydroxypropyl Cellulose (HPC), which is a […] medium. Granular HPC [Sigma-Aldrich Israel Ltd., CAS-No. 9004-64-2] […]
# [2] = Mass spectrometry analysis of GR24 test solutions (molecular stability); type: physicochemical
# Method: Mass spectrometry (MS) analysis was performed to GR24 test solutions using the Orbitrap XL (Thermo Fisher Scientific). The samples were injected directly using direct spray injection probe, in 50% acetonitrile solution and at […] flow rate. A full scan was acquired to detect the GR24 peaks, at 60,000 resolution, Maximum ion fill time settings were 300 ms for the high resolution full scan in the Orbitrap analyzer. The spectra are sum of 10 sec acquisition. Results observed by Xcalibur© software of Thermo Fisher Scientific Inc. version 2.0.7. were analyzed manually.
# Next, GR24 was stabilized with Hydroxypropyl Cellulose (HPC), which is a […] medium. Granular HPC [Sigma-Aldrich Israel Ltd., CAS-No. 9004-64-2] (1 g) was ground to a fine powder using a mortar and pestle, mixed with sterile distilled water to make about 10 mL of gel, and then allowed to stand for 1 day for complete dissolution at room temperature. Stability of GR24 was tested by both biological activity of the strigolactone and by assessing the molecule using LC-MS.
# olive seedling = test: Application to olive seedling stem under greenhouse conditions (parafilm, flexible or rigid tubes); details: in vivo
# Method: EGO10 either with PVAc, or HPC+glycerin were applied on olive seedling stem by the use of parafilm cover as the apparatus, under greenhouse conditions (FIG. 15). Greenhouse conditions include controlled room temperature of 25° C. In each experiment, 10 plants were used for each treatment. The substances were applied on the stem by a spatula and covered with parafilm.
# In attempt to improve the performance of the apparatus, different substances and different cover were used. Four formulations were developed and tested. These formulations are based on polysaccharide-sorbent-humidifier substances while the main difference between them is the viscosity of the final product and the ability to retain and release of the active ingredient (EGO 10). […] The cover consisted of a flexible plastic tube that was cut (FIG. 16A), placed on the seedling stem (FIG. 16B) and wrapped with transparent plaster (FIG. 16C). The plastic tubes were filled with the experimental material (FIG. 16D). Moist cotton was placed on both sides of the tubes to minimize water evaporation (FIG. 16E and FIG. 16F). Bud outgrowth was measured for 30 days.
# Rigid plastic tubes were tested in order to determine their efficiency as a delivery device for application of the hormone formulations to plants. At first, eppendorf tubes served as prototype. The tubes ware cut from top to bottom and placed on the stem of seedlings. Each tube was sealed with a small moist cotton at the bottom, filled with 1 ml of the examined material and finally covered with transparent plastic tape (FIGS. 17A-17E). The tubes were filled with (HPC+glycerin), or PVAc and EGO10 In each experiment, 10 plants were used for each treatment. Greenhouse conditions include controlled room temperature of 25° C.
# EGO10 (10 μM) or acetone control together with HPC+glycerin or PVAc were applied on the stem of olive cuttings by the use of rigid plastic tubes as described in Example 10 above.
# Bud outgrowth of olive cuttings was measured until day 30.
Compound,number of growing buds / lateral branches (Picual olives),"concentration at which the effect was most prominent (Picual olives; irrigation twice a week, 0.03 and 0.3 μM tested) [µM]","biological activity (Orobanche germination) after stress ([1]; 0.56 μM, long term exposure (over 5 days) to temperatures above 40° C., acidic pH solutions, UV irradiation)",biological activity in HPC medium ([1]; GR24 in HPC pre-made gel),"structure of the molecule in HPC medium (LC-MS) ([2]; GR24 in HPC, under the examination conditions)","molecular stability (MS) ([2]; long term exposure (over 5 days) to temperatures above 40° C., acidic pH solutions, UV irradiation)",seedling outgrowth with medium plus acetone control (olive seedling)
"CC1=C[C@H](O/C=C2/C(=O)O[C@@H]3c4ccccc4C[C@H]23)OC1=O (relative stereo) [GR24, (3aR*,8bS*,E)-3-(((R*)-4-methyl-5-oxo-2,5-dihydrofuran-2-yloxy)-methylene)-3,3a,4,8b-tetrahydro-2H-indeno[1,2-b]furan-2-one, reference compound]",significant reduction in number of lateral branches,0.03,loses biological activity,stabilized GR24 by increasing its biological activity,remained intact,molecularly degrading,–
"CC1=CC(O/C=C2/C(=O)c3c(c4cc(-c5scc6c5OCCO6)ccc4n3C)C2C)OC1=O (centres unmarked) [ST362, (2E)-2-[(2,5-dihydro-4-methyl-5-oxofuran-2-yloxy)methylene]-1,2-dihydro-7-(2,3-dihydrothieno[3,4-b][1,4]dioxin-7-yl)-1,4-dimethyl-cyclopenta[b]indole-3-(4H)-one]","similar, albeit less potent effect",–,–,–,–,–,–
polyvinyl acetate [PVAc],–,–,–,–,–,–,led to inhibition of seedling outgrowth
